From US20040180093A1, “Polymer compositions with bioactive agent, medical articles, and methods” (3M Innovative Properties Company, priority 2003, published 2004)

Test system: Staphylococcus aureus bacteria
Test: 2 Hours % Live Bacteria Test
Type: cell-based
Conditions: standard solution 0.5 wt-% in DI, calculated Ag+ weight 22,224 μg
Method: The effectiveness of a sample was tested using a L-7012, Bacterial Viability Kit, available from Molecular Probes (Eugene, Oreg.). The procedure is outlined below using the red, propidium iodide dye, and green, SYTO 9 dye, contained in the kit to stain the live and dead bacteria.
Preparation of bacteria solution: Staphylococcus aureus bacteria were grown in Trypticase (Tryptic) Soy Broth (TSB) medium overnight. Bacteria were concentrated by centrifugation at 10,000× gravity for 15 minutes (min). Supernatant was removed and the pellet was re-suspended in MilliQ water (filtered through a 0.2 μm pore-size filter) or in Butterfield phosphate buffer (from Hardy Diagnostics, Santa Maria, Calif.). […]
Sample preparation: All prototypes were prepared by punching out a 1-inch (2.54-cm) diameter samples using a stainless steel punch; sometimes as indicated in the examples a 1-inch (2.54 cm) disk was further cut with scissors in eighths and then evaluated. […]
Bacteria labeling and Anti-microbial testing: 7 m]L of bacteria solution at initial concentration of approximately 1×10^8 bacteria/mL were pipetted into a 50 mL conical tube containing the sample. […] These solutions were then measured by flow cytometry. Cell viability was measured using the BD FACSCaliber flow cytometer (made by Becton Dickinson & Company, Franklin Lakes, N.J.). […]

O=[N+]([O-])[O-].[Ag+] [silver nitrate, Silver Nitrate]
% live bacteria after 2 hours: 15.8%
